# Reference: ChEMBL document CHEMBL1138608, “The discovery of potent, selective, and orally bioavailable PDE9 inhibitors as potential hypoglycemic agents” (Bioorg Med Chem Lett, 2009)
# Key:
# [1] = target: Dual specificity calcium/calmodulin-dependent 3',5'-cyclic nucleotide phosphodiesterase 1B (Homo sapiens, UniProt Q01064); assay: Inhibition of PDE1b
# [2] = target: Dual specificity calcium/calmodulin-dependent 3',5'-cyclic nucleotide phosphodiesterase 1A (Homo sapiens, UniProt P54750); assay: Inhibition of PDE1a
# [3] = target: Dual specificity calcium/calmodulin-dependent 3',5'-cyclic nucleotide phosphodiesterase 1C (Homo sapiens, UniProt Q14123); assay: Inhibition of PDE1c
# [4] = target: High affinity cGMP-specific 3',5'-cyclic phosphodiesterase 9A (Homo sapiens, UniProt O76083); assay: Inhibition of human recombinant PDE9 expressed in SF9 cells by scintillation proximity assay
# [5] = target: High affinity 3',5'-cyclic-AMP phosphodiesterase 7A (Homo sapiens, UniProt Q13946); assay: Inhibition of PDE7a
# Mus musculus [6] = assay: Free plasma concentration at terminal bleed in ob/ob mouse at 250 mg/kg, po administered by subchronic dosing for 4 days after 3 hrs of last dose; settings: mouse, in vivo, po, 250 mg/kg, 3 h
# [7] = target: High affinity cAMP-specific and IBMX-insensitive 3',5'-cyclic phosphodiesterase 8A (Homo sapiens, UniProt O60658); assay: Inhibition of PDE8a
# [8] = target: cGMP-specific 3',5'-cyclic phosphodiesterase (Homo sapiens, UniProt O76074); assay: Inhibition of PDE5
# Mus musculus [9] = assay: Reduction of body weight in ob/ob mouse at 250 mg/kg, po administered by subchronic dosing for 4 days (RVb 44 g); assay type: functional; design: scale not given: the % may be the effect or the level left
# [10] = target: cGMP-inhibited 3',5'-cyclic phosphodiesterase 3A (Homo sapiens, UniProt Q14432); assay: Inhibition of PDE3a
# Mus musculus [11] = assay: Reduction of insulin level in ob/ob mouse at 100 mg/kg, po administered by subchronic dosing for 4 days (RVb 23 ng/mL); assay type: functional; design: scale not given: the % may be the effect or the level left
# [12] = target: 3',5'-cyclic-AMP phosphodiesterase 4A (Homo sapiens, UniProt P27815); assay: Inhibition of PDE4a
# [13] = Inhibition of PDE2
# [14] = Inhibition of PDE6
# Mus musculus [15] = assay: Free plasma concentration at terminal bleed in ob/ob mouse at 100 mg/kg, po administered by subchronic dosing for 4 days after 3 hrs of last dose; settings: mouse, in vivo, po, 100 mg/kg, 3 h
# [16] = target: 3',5'-cyclic-AMP phosphodiesterase 4B (Homo sapiens, UniProt Q07343); assay: Inhibition of PDE4b
# [17] = target: cGMP-inhibited 3',5'-cyclic phosphodiesterase 3B (Homo sapiens, UniProt Q13370); assay: Inhibition of PDE3b
# Mus musculus [18] = assay: Reduction of glucose level in ob/ob mouse at 250 mg/kg, po administered by subchronic dosing for 4 days (RVb 406 mg/dl); assay type: functional; design: scale not given: the % may be the effect or the level left
# Mus musculus [19] = assay: Free plasma concentration at terminal bleed in ob/ob mouse at 500 mg/kg, po administered by subchronic dosing for 4 days after 3 hrs of last dose; settings: mouse, in vivo, po, 500 mg/kg, 3 h
# [20] = target: 3',5'-cyclic-AMP phosphodiesterase 7B (Homo sapiens, UniProt Q9NP56); assay: Inhibition of PDE7b
# [21] = target: 3',5'-cyclic-AMP phosphodiesterase 4D (Homo sapiens, UniProt Q08499); assay: Inhibition of PDE4d
# Mus musculus [22] = assay: Reduction of glucose level in ob/ob mouse at 500 mg/kg, po administered by subchronic dosing for 4 days (RVb 406 mg/dl); assay type: functional; design: scale not given: the % may be the effect or the level left
# Mus musculus [23] = assay: Reduction of body weight in ob/ob mouse at 100 mg/kg, po administered by subchronic dosing for 4 days (RVb 44 g); assay type: functional; design: scale not given: the % may be the effect or the level left
# [24] = target: 3',5'-cyclic-AMP phosphodiesterase 4C (Homo sapiens, UniProt Q08493); assay: Inhibition of PDE4c
# Mus musculus [25] = assay: Reduction of insulin level in ob/ob mouse at 250 mg/kg, po administered by subchronic dosing for 4 days (RVb 23 ng/mL); assay type: functional; design: scale not given: the % may be the effect or the level left
# Mus musculus [26] = assay: Reduction of insulin level in ob/ob mouse at 500 mg/kg, po administered by subchronic dosing for 4 days (RVb 23 ng/mL); assay type: functional; design: scale not given: the % may be the effect or the level left
# Mus musculus [27] = assay: Reduction of body weight in ob/ob mouse at 500 mg/kg, po administered by subchronic dosing for 4 days (RVb 44 g); assay type: functional; design: scale not given: the % may be the effect or the level left
# [28] = Inhibition of PDE11
# [29] = target: High affinity cAMP-specific and IBMX-insensitive 3',5'-cyclic phosphodiesterase 8B (Homo sapiens, UniProt O95263); assay: Inhibition of PDE8b
# Mus musculus [30] = assay: Reduction of glucose level in ob/ob mouse at 100 mg/kg, po administered by subchronic dosing for 4 days relative to control (RVb 406 mg/dl); assay type: functional; design: scale not given: the % may be the effect or the level left
# [31] = Inhibition of PDE10
# Chain of Dual specificity calcium/calmodulin-dependent 3',5'-cyclic nucleotide phosphodiesterase 1C (Q14123 whole entry): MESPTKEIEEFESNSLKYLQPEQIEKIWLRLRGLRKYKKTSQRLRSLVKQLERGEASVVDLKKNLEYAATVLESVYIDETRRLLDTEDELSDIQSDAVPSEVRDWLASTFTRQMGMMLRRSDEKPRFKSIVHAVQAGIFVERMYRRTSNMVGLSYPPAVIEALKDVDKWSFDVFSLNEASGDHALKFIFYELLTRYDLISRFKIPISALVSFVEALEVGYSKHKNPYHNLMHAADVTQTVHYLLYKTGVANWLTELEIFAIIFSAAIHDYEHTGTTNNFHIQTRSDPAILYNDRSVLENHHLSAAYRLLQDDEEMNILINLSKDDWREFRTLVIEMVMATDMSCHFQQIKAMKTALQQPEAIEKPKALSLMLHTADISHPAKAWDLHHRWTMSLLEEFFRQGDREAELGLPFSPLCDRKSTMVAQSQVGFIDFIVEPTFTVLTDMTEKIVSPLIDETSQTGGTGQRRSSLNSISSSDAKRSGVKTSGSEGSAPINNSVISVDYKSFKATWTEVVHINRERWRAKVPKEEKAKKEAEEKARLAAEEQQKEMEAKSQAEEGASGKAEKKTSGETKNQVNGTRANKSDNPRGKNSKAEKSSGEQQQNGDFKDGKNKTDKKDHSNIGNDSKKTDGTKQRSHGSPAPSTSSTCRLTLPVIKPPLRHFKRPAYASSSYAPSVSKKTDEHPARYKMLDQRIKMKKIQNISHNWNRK
# Chain of High affinity cGMP-specific 3',5'-cyclic phosphodiesterase 9A (O76083 whole entry): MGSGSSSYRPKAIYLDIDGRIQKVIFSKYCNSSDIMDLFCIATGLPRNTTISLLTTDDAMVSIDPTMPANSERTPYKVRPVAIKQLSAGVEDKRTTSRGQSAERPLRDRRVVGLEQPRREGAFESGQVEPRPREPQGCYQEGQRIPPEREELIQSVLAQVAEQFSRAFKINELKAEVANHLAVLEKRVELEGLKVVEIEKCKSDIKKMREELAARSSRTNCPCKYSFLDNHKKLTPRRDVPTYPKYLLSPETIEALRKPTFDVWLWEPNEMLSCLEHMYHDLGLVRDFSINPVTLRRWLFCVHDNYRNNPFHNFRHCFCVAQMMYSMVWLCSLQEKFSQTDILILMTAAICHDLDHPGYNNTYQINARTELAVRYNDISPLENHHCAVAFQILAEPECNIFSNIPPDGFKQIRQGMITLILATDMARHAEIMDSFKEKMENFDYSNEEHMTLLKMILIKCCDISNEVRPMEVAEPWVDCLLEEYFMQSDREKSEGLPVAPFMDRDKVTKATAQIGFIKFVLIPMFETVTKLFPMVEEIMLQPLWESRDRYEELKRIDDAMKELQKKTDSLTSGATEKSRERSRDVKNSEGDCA
# Chain of Dual specificity calcium/calmodulin-dependent 3',5'-cyclic nucleotide phosphodiesterase 1A (P54750 whole entry): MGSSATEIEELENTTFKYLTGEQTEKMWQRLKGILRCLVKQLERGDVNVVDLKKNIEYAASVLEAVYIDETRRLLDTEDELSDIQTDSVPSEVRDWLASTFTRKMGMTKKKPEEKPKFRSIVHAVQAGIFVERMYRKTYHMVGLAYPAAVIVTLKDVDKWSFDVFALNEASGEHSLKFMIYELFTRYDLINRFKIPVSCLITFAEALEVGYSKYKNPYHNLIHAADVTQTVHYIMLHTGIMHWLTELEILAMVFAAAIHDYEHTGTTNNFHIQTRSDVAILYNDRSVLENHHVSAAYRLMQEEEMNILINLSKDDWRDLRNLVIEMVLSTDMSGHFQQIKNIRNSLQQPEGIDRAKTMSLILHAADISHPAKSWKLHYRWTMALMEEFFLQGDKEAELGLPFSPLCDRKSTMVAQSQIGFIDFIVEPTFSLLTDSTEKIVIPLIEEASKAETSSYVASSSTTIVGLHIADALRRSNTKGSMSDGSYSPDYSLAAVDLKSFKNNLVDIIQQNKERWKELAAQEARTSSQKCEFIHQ
# Chain of Dual specificity calcium/calmodulin-dependent 3',5'-cyclic nucleotide phosphodiesterase 1B (Q01064 whole entry): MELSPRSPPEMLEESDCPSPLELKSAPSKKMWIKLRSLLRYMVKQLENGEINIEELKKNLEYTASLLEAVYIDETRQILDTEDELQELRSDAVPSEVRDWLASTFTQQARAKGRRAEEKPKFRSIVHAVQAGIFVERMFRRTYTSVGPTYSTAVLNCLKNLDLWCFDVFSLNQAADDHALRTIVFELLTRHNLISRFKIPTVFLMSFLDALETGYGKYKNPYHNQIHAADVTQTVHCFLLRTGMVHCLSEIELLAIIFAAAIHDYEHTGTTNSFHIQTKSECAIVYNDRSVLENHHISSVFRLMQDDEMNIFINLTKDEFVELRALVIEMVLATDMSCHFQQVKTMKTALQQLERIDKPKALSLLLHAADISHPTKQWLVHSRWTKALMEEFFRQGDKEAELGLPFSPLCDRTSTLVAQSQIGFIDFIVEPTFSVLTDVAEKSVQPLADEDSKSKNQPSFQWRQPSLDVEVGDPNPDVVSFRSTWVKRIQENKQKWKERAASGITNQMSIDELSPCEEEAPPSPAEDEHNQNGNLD
# Chain of High affinity cAMP-specific and IBMX-insensitive 3',5'-cyclic phosphodiesterase 8A (O60658 whole entry): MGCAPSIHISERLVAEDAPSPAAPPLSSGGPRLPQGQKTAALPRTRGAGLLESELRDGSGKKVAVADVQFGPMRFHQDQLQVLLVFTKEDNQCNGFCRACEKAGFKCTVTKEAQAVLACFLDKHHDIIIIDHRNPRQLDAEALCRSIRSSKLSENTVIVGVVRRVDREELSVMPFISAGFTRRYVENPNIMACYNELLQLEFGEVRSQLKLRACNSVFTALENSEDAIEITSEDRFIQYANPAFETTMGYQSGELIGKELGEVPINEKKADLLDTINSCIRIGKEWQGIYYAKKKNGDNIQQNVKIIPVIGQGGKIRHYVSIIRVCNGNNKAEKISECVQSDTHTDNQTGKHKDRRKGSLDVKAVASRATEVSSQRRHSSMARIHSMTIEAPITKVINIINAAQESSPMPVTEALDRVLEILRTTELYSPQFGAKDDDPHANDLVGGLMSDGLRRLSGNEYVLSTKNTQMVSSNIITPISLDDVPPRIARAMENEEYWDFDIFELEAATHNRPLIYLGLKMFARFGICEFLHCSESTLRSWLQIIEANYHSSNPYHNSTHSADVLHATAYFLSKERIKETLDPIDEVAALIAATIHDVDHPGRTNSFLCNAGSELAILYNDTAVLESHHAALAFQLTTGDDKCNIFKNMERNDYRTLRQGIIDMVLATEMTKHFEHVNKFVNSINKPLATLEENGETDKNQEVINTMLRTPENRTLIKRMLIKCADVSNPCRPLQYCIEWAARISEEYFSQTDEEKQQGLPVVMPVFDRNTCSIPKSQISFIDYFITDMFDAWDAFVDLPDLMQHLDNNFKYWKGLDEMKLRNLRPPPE
# Chain of cGMP-inhibited 3',5'-cyclic phosphodiesterase 3A (Q14432 whole entry): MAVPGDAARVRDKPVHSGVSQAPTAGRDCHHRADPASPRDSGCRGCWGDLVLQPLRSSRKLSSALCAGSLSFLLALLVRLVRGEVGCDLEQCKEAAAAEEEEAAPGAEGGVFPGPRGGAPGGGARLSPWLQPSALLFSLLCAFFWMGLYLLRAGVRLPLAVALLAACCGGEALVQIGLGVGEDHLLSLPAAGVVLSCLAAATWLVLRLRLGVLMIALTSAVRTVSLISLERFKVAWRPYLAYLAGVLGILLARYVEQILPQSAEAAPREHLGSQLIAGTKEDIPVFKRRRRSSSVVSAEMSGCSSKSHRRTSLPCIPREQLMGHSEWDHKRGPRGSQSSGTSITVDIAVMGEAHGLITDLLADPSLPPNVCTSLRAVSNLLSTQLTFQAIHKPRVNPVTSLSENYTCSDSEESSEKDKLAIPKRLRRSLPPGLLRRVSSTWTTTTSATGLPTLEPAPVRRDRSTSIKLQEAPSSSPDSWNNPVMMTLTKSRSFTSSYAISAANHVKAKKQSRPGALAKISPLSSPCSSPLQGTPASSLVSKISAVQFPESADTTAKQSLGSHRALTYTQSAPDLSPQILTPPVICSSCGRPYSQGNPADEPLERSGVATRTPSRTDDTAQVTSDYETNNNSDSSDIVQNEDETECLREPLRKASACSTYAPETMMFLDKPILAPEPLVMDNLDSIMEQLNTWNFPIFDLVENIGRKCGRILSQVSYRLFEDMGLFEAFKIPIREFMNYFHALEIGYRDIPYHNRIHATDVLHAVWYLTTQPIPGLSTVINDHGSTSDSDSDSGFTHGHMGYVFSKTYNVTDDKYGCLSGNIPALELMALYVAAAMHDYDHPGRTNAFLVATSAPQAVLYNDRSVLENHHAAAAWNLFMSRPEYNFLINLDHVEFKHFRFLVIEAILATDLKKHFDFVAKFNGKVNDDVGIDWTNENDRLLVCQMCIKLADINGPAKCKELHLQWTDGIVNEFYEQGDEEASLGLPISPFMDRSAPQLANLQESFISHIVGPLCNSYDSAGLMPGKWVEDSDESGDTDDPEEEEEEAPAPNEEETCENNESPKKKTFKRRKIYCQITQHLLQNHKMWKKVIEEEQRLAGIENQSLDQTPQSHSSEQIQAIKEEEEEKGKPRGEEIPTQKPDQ
# Chain of 3',5'-cyclic-AMP phosphodiesterase 4C (Q08493 whole entry): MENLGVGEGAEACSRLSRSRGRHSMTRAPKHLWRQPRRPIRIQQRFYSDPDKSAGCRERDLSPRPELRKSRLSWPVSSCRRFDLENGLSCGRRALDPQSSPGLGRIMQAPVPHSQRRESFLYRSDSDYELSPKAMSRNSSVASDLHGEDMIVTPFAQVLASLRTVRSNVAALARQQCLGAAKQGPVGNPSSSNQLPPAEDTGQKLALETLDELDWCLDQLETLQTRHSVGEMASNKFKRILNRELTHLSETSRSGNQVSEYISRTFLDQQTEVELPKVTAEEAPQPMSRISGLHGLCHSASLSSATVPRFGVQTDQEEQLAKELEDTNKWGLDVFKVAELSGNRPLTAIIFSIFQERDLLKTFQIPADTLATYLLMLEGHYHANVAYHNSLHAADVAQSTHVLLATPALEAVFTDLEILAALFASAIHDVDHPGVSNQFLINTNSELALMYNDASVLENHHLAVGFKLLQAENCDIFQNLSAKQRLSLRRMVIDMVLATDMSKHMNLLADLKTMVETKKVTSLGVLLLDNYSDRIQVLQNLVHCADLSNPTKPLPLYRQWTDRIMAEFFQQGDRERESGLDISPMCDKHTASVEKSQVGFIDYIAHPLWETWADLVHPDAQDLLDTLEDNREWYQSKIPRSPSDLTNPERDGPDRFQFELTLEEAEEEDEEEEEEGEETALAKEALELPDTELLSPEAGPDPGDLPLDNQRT
compound,measurement,setting,value
CC(C)c1nn(C)c2c(=O)[nH]c(Cc3ccccc3OCCN3CCOCC3)nc12,IC50,[1],7.81 µM
same,IC50,[2],0.79 µM
same,IC50,[3],0.97 µM
same,IC50,[4],0.53 µM
CC(C)c1n[nH]c2c(=O)[nH]c(Cc3ccccc3OCCN3CCOCC3)nc12,IC50,[5],> 10 µM
same,Cp(f),Mus musculus [6],243 nM
same,IC50,[7],> 10 µM
same,IC50,[1],4.95 µM
same,IC50,[2],3.9 µM
same,IC50,[8],5.2 µM
same,Activity,Mus musculus [9],-6.4%
same,IC50,[10],> 10 µM
same,Activity,Mus musculus [11],-35%
same,IC50,[12],> 10 µM
same,IC50,[13],8.2 µM
same,IC50,[14],> 10 µM
same,Cp(f),Mus musculus [15],140 nM
same,IC50,[16],> 10 µM
same,IC50,[17],> 10 µM
same,Activity,Mus musculus [18],-40%
same,Cp(f),Mus musculus [19],361 nM
same,IC50,[20],> 10 µM
same,IC50,[3],1.13 µM
same,IC50,[21],> 10 µM
same,Activity,Mus musculus [22],-55%
same,Activity,Mus musculus [23],-4.3%
same,IC50,[24],> 10 µM
same,Activity,Mus musculus [25],-35%
same,Activity,Mus musculus [26],-59%
same,Activity,Mus musculus [27],-11%
same,IC50,[28],> 10 µM
same,IC50,[29],> 10 µM
same,IC50,[4],0.041 µM
same,Activity,Mus musculus [30],-32%
same,IC50,[31],> 10 µM
CC(C)c1n[nH]c2c(=O)[nH]c(C[C@@H]3CCCC[C@H]3NC(=O)CN3CCCC3)nc12,IC50,[1],> 10 µM
same,IC50,[2],> 10 µM
same,IC50,[3],> 10 µM
same,IC50,[4],0.036 µM
Cc1ccc(N[C@@H]2CCCC[C@H]2Cc2nc3c(C(C)C)[nH]nc3c(=O)[nH]2)nn1,IC50,[1],> 10 µM
same,IC50,[2],> 10 µM
same,IC50,[3],7.6 µM
same,IC50,[4],0.023 µM
CC(C)c1n[nH]c2c(=O)[nH]c(C[C@@H]3CCCC[C@H]3OCCN3CCOCC3)nc12,IC50,[1],> 10 µM
same,IC50,[2],> 10 µM
same,IC50,[3],2.05 µM
same,IC50,[4],0.087 µM
CC(C)c1n[nH]c2c(=O)[nH]c(Cc3ccccc3OCc3ccccc3)nc12,IC50,[1],2.63 µM
same,IC50,[2],1.43 µM
same,IC50,[3],1.34 µM
same,IC50,[4],0.082 µM
